Measured values from publication PMC8262977, “A Dual-Specificity Inhibitor Targets Polyphosphate Kinase 1 and 2 Enzymes To Attenuate Virulence of Pseudomonas aeruginosa” (mBio, 2021).
Converted amounts (≈) assume the structure as drawn. Read-outs that look alike come from different tables or passages of the source.

Key:
[1] = target: T1, P. aeruginosa PPK2B (Pseudomonas aeruginosa, UniProt Q9I154); test: PPK2B polyP synthesis from ATP, toluidine blue detection; assay type: biochemical
T1 construct: MBP (N, cleaved yes); His tag (N, cleaved yes); made in house; host or cells: E. coli BL21(DE3)
T1 sequence (Q9I154 whole entry): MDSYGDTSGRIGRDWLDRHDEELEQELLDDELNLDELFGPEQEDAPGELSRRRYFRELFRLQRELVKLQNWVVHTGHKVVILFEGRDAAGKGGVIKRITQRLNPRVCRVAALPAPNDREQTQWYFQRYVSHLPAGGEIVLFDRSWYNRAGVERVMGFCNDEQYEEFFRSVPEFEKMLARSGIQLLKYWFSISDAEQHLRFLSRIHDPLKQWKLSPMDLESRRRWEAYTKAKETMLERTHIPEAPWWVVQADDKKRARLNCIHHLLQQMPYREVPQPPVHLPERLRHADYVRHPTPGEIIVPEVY
Description: (§1) Compounds were synthesized as outlined in Text S1. Compounds were dissolved in DMSO to make 10 mM stocks and added to a 200 μM final concentration for initial screening. The screen for PPK1 inhibitors was conducted by measuring polyP synthesis activity as described previously ([12]), with the exception of the polyP detection method (see Text S1). The reaction mix contained 50 mM HEPES-KOH, pH 7.5, 40 mM (NH4)2SO4, 4 mM MgSO4, 60 mM creatine phosphate, 0.0625 mg/ml creatine kinase (Sigma; from rabbit muscle), 5 mM ATP, and 275 nM PPK1 (added last). One-hundred-microliter reaction mixtures were incubated at 37°C for 30 min, after which time 50-μl aliquots were withdrawn and added to 1,000 μl of 6-mg/liter toluidine blue dissolved in 40 mM acetic acid to quench the reaction and quantify polyP ([27]). The A630/530 nm ratio was then recorded, and the values obtained were corrected by subtracting the corresponding blanks (all ingredients except enzyme). The amount of polyP synthesized was calculated using a standard curve (Fig. S1A). Any compounds showing 50% or greater reduction in activity relative to the DMSO control were subjected to further IC50 analysis.
(§2) All IC50 and kinetic assay mixtures contained equimolar amounts (275 nM) of PPK to ensure valid comparison between different enzymes. PolyP synthesis activity (for PPK1 and PPK2B) was assayed using the reaction buffer and conditions described above. ATP concentration was varied as indicated for kinetic experiments. Curves were fit using GraphPad Prism V9.

[2] = tested on: HEK293T cells; test: HEK293T cytotoxicity assay, trypan blue; assay type: cell-based, human; conditions: 48 h incubation
Description: HEK293 cells were grown in Dulbecco’s modified Eagle’s medium supplemented with 10% fetal bovine serum at 5% CO2 and 37°C. Cells were grown until a confluent monolayer was formed in 12-well culture plates, at which point inhibitors or DMSO was added. After 48-h incubation, cells were detached with trypsin and percent viability was scored via a hemocytometer and trypan blue staining.

[3] = target: T2, P. aeruginosa PPK2A (Pseudomonas aeruginosa, UniProt Q9I6Z1); test: PPK2A ADP phosphorylation by polyP (ATP synthesis), toluidine blue detection; assay type: biochemical
T2 construct: residues P9 to P289; MBP (N, cleaved yes); His tag (N, cleaved yes); made in house; host or cells: E. coli BL21(DE3)
T2 sequence (Q9I6Z1 68-348): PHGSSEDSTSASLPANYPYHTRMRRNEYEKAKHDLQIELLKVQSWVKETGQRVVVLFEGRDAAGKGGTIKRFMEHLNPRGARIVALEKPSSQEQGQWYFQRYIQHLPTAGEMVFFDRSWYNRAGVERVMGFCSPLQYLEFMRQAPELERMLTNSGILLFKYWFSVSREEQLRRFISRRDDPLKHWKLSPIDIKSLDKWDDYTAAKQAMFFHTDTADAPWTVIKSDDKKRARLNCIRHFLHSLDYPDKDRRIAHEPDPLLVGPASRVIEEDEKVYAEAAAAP
Description: as §2
(§3) Nucleotide phosphorylation activity of PPK2 enzymes was assayed in buffer containing 50 mM Tris-HCl, pH 7.5, 10 mM (NH4)2SO4, 10 mM MgCl2, 5 mM polyP45 (Sigma; in terms of individual Pi monomers), and nucleotide (ADP or AMP) at 5 mM for IC50 reactions or as indicated for kinetic experiments. Enzyme was added to a final concentration of 275 nM in 100-μl reaction volumes. One-hundred-microliter reaction mixtures were incubated at 37°C for 30 min, and then 5-μl aliquots were withdrawn and added to 1,000 μl of 6-mg/liter toluidine blue dissolved in 40 mM acetic acid to quench the reaction and quantify the polyP that remained. The A630/530 nm ratio was then recorded, and the values obtained were corrected by subtracting the corresponding blanks (all ingredients except enzyme). The amount of polyP consumed was calculated by subtracting the amount present after reaction from that present in the initial reaction mix, as calculated via a standard curve. Each monomer of Pi consumed from polyP equates to one nucleoside phosphorylated. Curves were fit using GraphPad Prism V9.

[4] = target: T3, P. aeruginosa PPK1 (Pseudomonas aeruginosa, UniProt P0DP44); test: PPK1 polyP synthesis from ATP, toluidine blue detection; assay type: biochemical; conditions: polyP synthesis from ATP; 275 nM enzyme
T3 construct: His tag (cleaved yes); made in house
T3 sequence (P0DP44 whole entry): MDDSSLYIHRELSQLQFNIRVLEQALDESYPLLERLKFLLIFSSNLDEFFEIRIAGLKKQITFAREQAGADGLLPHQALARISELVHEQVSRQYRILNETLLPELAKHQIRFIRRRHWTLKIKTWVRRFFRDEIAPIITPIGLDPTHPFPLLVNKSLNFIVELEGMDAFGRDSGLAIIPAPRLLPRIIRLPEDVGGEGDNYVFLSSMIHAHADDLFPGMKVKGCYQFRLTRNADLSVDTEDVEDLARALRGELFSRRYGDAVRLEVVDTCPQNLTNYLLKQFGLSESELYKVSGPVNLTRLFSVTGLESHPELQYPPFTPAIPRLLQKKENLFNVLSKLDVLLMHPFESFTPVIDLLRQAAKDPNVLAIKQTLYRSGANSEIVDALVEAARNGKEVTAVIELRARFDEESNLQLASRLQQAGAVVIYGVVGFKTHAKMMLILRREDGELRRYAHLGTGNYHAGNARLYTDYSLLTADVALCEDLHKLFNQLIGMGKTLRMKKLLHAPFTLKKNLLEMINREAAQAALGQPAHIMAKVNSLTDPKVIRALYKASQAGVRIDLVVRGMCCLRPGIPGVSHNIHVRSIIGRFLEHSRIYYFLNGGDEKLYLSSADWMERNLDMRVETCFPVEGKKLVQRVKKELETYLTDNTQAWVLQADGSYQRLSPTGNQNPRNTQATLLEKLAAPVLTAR
Description: as §1, with “The reaction mix contained 50 mM HEPES-KOH, pH 7.5, 40 mM (NH4)2SO4, 4 mM MgSO4, 60 mM creatine phosphate, 0.0625 mg/ml creatine kinase (Sigma; from rabbit muscle), 5 mM ATP, and 275 nM PPK1 (added last).” left out
as §2

[5] = target: T4, P. aeruginosa PPK2C (Pseudomonas aeruginosa, UniProt Q9HYF1); test: PPK2C AMP phosphorylation by polyP (ADP synthesis), toluidine blue detection; assay type: biochemical
T4 construct: MBP (N, cleaved yes); His tag (N, cleaved yes); made in house; host or cells: E. coli BL21(DE3)
T4 sequence (Q9HYF1 whole entry): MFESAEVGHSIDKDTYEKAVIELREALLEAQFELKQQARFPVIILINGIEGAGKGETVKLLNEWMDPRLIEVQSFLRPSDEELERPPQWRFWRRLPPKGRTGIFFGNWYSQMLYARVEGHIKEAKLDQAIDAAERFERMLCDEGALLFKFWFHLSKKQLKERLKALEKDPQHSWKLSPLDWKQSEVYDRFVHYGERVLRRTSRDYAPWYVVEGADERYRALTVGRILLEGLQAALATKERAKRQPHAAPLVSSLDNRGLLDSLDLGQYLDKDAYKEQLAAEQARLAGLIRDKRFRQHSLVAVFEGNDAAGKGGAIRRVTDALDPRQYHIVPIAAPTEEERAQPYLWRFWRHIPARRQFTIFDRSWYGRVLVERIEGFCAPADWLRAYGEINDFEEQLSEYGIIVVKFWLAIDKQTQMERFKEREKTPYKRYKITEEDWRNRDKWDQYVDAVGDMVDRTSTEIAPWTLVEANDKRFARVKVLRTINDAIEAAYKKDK
Description: as §2, §3

[6] = tested on: P. aeruginosa; test: microbe, parasite or virus in culture; assay type: cell-based, Pseudomonas aeruginosa; conditions: Pseudomonas aeruginosa
[7] = tested on: P. aeruginosa; test: Antibiotic synergy in the C. elegans LK model; assay type: in vivo, Caenorhabditis elegans; set-up: C. elegans antibiotic synergy, Mean Diff.: unit not given here
Description: Assessment of antibiotic synergy in the C. elegans model was adapted from previously described protocols ([25]). Briefly, glp-4 C. elegans worms were incubated at 25°C with P. aeruginosa and the indicated amount of gallein or DMSO in LK medium as described above. After 24 h, antibiotics were added. After another 24 h, C. elegans survival was scored as described above.

[8] = tested on: E. coli PPK1; set-up: method as in earlier work; conditions: ref 1 (supplement: Ahn K, Kornberg A. 1990); cited from earlier work
[9] = polyP synthesis from ATP, 275 nM enzyme, read-out: IC50 PPK2B
[10] = ATP synthesis from ADP and polyP, 275 nM enzyme, read-out: IC50 PPK2A
[11] = Data Set S1, sheet Risen compounds, read-out: PA PPK2A IC50
[12] = ADP synthesis from AMP and polyP, 275 nM enzyme, read-out: IC50 PPK2C
[13] = Data Set S1, sheet Risen compounds, read-out: PA PPK2C IC50

| SMILES | IC50 [1, 9] [µM] | IC50 [3, 10] [µM] | IC50 [3, 11] [µM] | IC50 [4] [µM] | IC50 [5, 12] [µM] | IC50 [5, 13] [µM] | also measured |
| --- | --- | --- | --- | --- | --- | --- | --- |
| COc1ccc2c(c1OC)c(=O)oc1c(OC)c(O)ccc12 [RT1, 3-hydroxy-4,7,8-trimethoxy-6H-benzo[c]chromen-6-one] | > 500 | > 500 | > 500 | 120 ± 10 | > 500 | > 500 | IC50 ([1]; Data Set S1, sheet Risen compounds, read-out: PA PPK2B IC50): > 500 µM; reduction of cell viability [2]: ~60% |
| O=c1oc2c(O)c(O)c(O)c3c(=O)oc4c(O)c(O)cc1c4c23 [RT2, 1,2,3,7,8-pentahydroxychromeno[5,4,3-cde]chromene-5,10-dione] | 59 ± 5 | > 500 | > 500 | 20 ± 4 | > 500 | > 500 |  |
| CN(C)[C@@H]1C(O)=C(C(N)=O)C(=O)[C@@]2(O)C(O)=C3C(=O)c4c(O)cccc4[C@@](C)(O)[C@H]3C[C@@H]12 [tetracycline, reference compound] |  |  |  |  |  |  | MIC [6]: 16 µg/mL (≈ 36 µM); C. elegans antibiotic synergy, Mean Diff. ([7]; No antibiotic + 100 µM gallein vs Tet (10 µg/mL) + 100 µM gallein): -22.79; C. elegans antibiotic synergy, Mean Diff. ([7]; No antibiotic DMSO vs Tet (10 µg/mL) DMSO): 10.54 |
| Nc1ncnc2c1ncn2[C@@H]1O[C@H](COP(=O)(O)OP(=O)(O)O)[C@@H](O)[C@H]1O [ADP] |  |  |  |  |  |  | Ki [8]: 90 µM |
| O=c1oc2c(O)c(O)cc3c(=O)oc4c(O)c(O)cc1c4c23 [RT3 (ellagic acid), 2,3,7,8-tetrahydroxychromeno[5,4,3-cde]chromene-5,10-dione] | 48 ± 2 | 50 ± 6 |  | 20 ± 2 | > 500 | > 500 |  |
| O=C(O)c1cn(C2CC2)c2cc(N3CCNCC3)c(F)cc2c1=O [ciprofloxacin, reference compound] |  |  |  |  |  |  | C. elegans antibiotic synergy, Mean Diff. ([7]; No antibiotic + 100 µM gallein vs Cipro (0.75 µg/mL) + 100 µM gallein): -18.9; C. elegans antibiotic synergy, Mean Diff. ([7]; No antibiotic DMSO vs Cipro (0.75 µg/mL) DMSO): 12.02 |
